# Reference: US12606795B2 (Thankcome Biological Science and Technology (SuZhou) Co., …, priority 2023, dated 2026)
# What was measured:
# [1] = system: Escherichia coli WP2 uvrA; details: Escherichia coli WP2A uvr −S9
# Description: (§1) Bacterial strains used were Salmonella typhimurium TA97a (National Center for Type Culture Collection NTCC, 506391), S. typhimurium TA98 (NTCC, 506392), S. typhimurium TA100 (NTCC, 506395), S. typhimurium TA1535 (NTCC, 506396), and Escherichia coli WP2 uvrA (CHI Scientific, Co., Ltd., product number: 6-1705). To prepare a drug delivery formulation, distilled water was used as a carrier to prepare a suspension (100 mg/mL) for a test item. […] Therefore, bacteria in samples for the test item were removed by a mechanical means. In the process of mixing the formulation, any soluble components for the test item was dissolved in the carrier, and then, residual bacteria were removed by centrifugation (4° C.; 8000 rpm; 10 min). After centrifugation, liquid supernatant was removed and sterile filtration was performed with a 0.22 μm filter.
# (§2) In the confirmatory mutation research, detection was performed at 15.81, 50, 158.1, 500, 1581, and 5000 μg/plate. The maximum concentration was recommended by current regulations and guidelines. […] The survival rate of test bacterial cells was checked through plate experiments in each test. If there is a dosage-related increase in the number of revertants, it is considered that the test item has mutagenicity, and/or a reproducible biology-related positive reaction targeting at least one dosage group occurs in at least one strain with or without metabolic activation.
# S. typhimurium TA100 = details: TA100 −S9
# Description: as §1, §2
structure (smiles),measurement,setting,value
"COS(C)(=O)=O [Positive control 2, methyl methylsulfonate]",Number of revertant mutants per plate (mean ± standard deviation),[1],613.40
same,Number of revertant mutants per plate (mean ± standard deviation),S. typhimurium TA100,1347.00
